Measurements published in ChEMBL document CHEMBL3243967, “Potential antitumor agents. 25. Azalogues of the 4'-(9-acridinylamino) methanesulfonanilides” (J Med Chem, 1977).

Assays:
[1] = Toxicity in ip dosed mouse allografted with mouse L1210 cells administered qd from day 1 to 5 of challenge; format: organism-based; conditions: in vivo
[2] = Ionization constant, pKa of the compound in 20% DMF-buffer mixture by UV spectrophotometry; format: physicochemical
[3] = Lipophilic-hydrophilic balance, Rm of the compound by reversed-phase partition chromatography; format: physicochemical
L1210 [4] = assay: Antitumor activity against mouse L1210 cells allografted in ip dosed mouse assessed as dose required for maximum increase in life span administered qd from day 1 to 5 of challenge; format: functional
L1210 [5] = assay: Antitumor activity against mouse L1210 cells allografted in ip dosed mouse assessed as increase in life span at optimal dose administered qd from day 1 to 5 of challenge relative to control; format: functional
[6] = Ionization constant, pKa of the compound at pH 7.4; format: physicochemical

SMILES | MTD [1] | pKa [2] | Rm [3] | Activity (L1210 [4]) | Increase in life span (L1210 [5]) | pKa [6]
CS(=O)(=O)Nc1ccc(Nc2c3ccccc3nc3c([N+](=O)[O-])cccc23)cc1 | > 500 mg/kg | 4.88 | -0.17 | – | – | –
CS(=O)(=O)Nc1ccc(Nc2c3ccccc3nc3ncccc23)cc1 | > 500 mg/kg | 5.93 | -0.27 | – | – | –
CS(=O)(=O)Nc1ccc(Nc2c3ccccc3nc3cccnc23)cc1 | > 500 mg/kg | 6.9 | -0.56 | – | – | –
CS(=O)(=O)Nc1ccc(Nc2c3ccccc3nc3cccc([N+](=O)[O-])c23)cc1 | 75 mg/kg | 4.79 | -0.09 | – | – | –
COc1cc(Nc2c3ccccc3nc3c([N+](=O)[O-])cccc23)ccc1NS(C)(=O)=O | – | 5.05 | 0.09 | 75 mg/kg | 38% | –
CS(=O)(=O)Nc1ccc(Nc2c3ccccc3nc3cc([N+](=O)[O-])ccc23)cc1 | – | 5.52 | -0.17 | 25 mg/kg | 123% | –
CS(=O)(=O)Nc1ccc(Nc2c3ccccc3nc3ccncc23)cc1 | > 500 mg/kg | 5.73 | -0.39 | – | – | –
CS(=O)(=O)Nc1ccc(Nc2c3ccc([N+](=O)[O-])cc3nc3cc([N+](=O)[O-])ccc23)cc1 | – | – | – | – | – | 3.68
COc1cc(Nc2c3ccccc3nc3cccnc23)ccc1NS(C)(=O)=O | 220 mg/kg | 7.19 | -0.39 | – | – | –
COc1cc(Nc2c3ccccc3nc3ccncc23)ccc1NS(C)(=O)=O | 500 mg/kg | 5.84 | -0.25 | – | – | –
COc1cc(Nc2c3ccccc3nc3cnccc23)ccc1NS(C)(=O)=O | – | 5.53 | -0.13 | 90 mg/kg | 88% | –
COc1cc(Nc2c3ccccc3nc3ncccc23)ccc1NS(C)(=O)=O | – | 6.09 | -0.07 | 62 mg/kg | 89% | –
COc1cc(Nc2c3ccccc3nc3cccc([N+](=O)[O-])c23)ccc1NS(C)(=O)=O | – | 4.98 | -0.01 | 180 mg/kg | 44% | –
COc1cc(Nc2c3ccccc3nc3ccc([N+](=O)[O-])cc23)ccc1NS(C)(=O)=O | > 500 mg/kg | 5.63 | -0.06 | – | – | –
COc1cc(Nc2c3ccccc3nc3cc([N+](=O)[O-])ccc23)ccc1NS(C)(=O)=O | – | 5.72 | 0.11 | 4.5 mg/kg | 84% | –
CS(=O)(=O)Nc1ccc(Nc2c3ccccc3nc3ccc(N)cc23)cc1 | – | 7.15 | -0.31 | 25 mg/kg | 78% | –
CS(=O)(=O)Nc1ccc(Nc2c3ccccc3nc3ccc([N+](=O)[O-])cc23)cc1 | – | 5.42 | -0.21 | 250 mg/kg | 27% | –
CS(=O)(=O)Nc1ccc(Nc2c3ccccc3nc3cnccc23)cc1 | > 500 mg/kg | 5.32 | -0.33 | – | – | –
CS(=O)(=O)Nc1ccc(Nc2c3ccccc3nc3cc(N)ccc23)cc1 | – | 9.8 | -0.17 | 2.5 mg/kg | 81% | –
CS(=O)(=O)Nc1ccc(Nc2c3ccccc3nc3ccccc23)cc1 | – | – | 0 | 45 mg/kg | 107% | –
